What was measured:
[1] = Inhibition of N-terminal 6-His tagged full length cynomolgus monkey 11betaHSD1 incubated for 25 mins by HTRF assay; parameters: species or system Macaca fascicularis
[2] = Inhibition of N-terminal 6-His tagged full length dog 11betaHSD1 incubated for 25 mins by HTRF assay; parameters: species or system Canis lupus familiaris
[3] = Drug metabolism in bile duct cannulated rat urine assessed as ratio of glucuronidation to oxidative metabolism level during 0 to 6 hrs post dose by metabolism-ID study; format: ADME, tissue-based; conditions: in vivo
[4] = Drug metabolism in bile duct cannulated rat bile assessed as ratio of glucuronidation to oxidative metabolism level during 0 to 6 hrs post dose by metabolism-ID study; format: ADME; conditions: in vivo
[5] = Drug metabolism in bile duct cannulated rat urine assessed as oxidative metabolism level during 0 to 6 hrs post dose by metabolism-ID study; format: ADME, tissue-based; conditions: in vivo
[6] = Drug metabolism in bile duct cannulated rat bile assessed as oxidative metabolism level during 0 to 6 hrs post dose by metabolism-ID study; format: ADME; conditions: in vivo
[7] = Stability in bile duct cannulated rat urine assessed as parent compound remaining measured during 0 to 6 hrs post dose; format: ADME, tissue-based; conditions: in vivo
[8] = Stability in bile duct cannulated rat bile assessed as parent compound remaining measured during 0 to 6 hrs post dose; format: ADME; conditions: in vivo
Hepatocyte [9] = assay: Drug metabolism in human hepatocytes assessed as ratio of glucuronidation to oxidative metabolism level by metabolism-ID study; format: ADME, cell-based
[10] = Drug metabolism in dog hepatocytes assessed as ratio of glucuronidation to oxidative metabolism level by metabolism-ID study; format: ADME, cell-based, Canis lupus familiaris, Hepatocyte
Hepatocyte [11] = assay: Drug metabolism in rat hepatocytes assessed as ratio of glucuronidation to oxidative metabolism level by metabolism-ID study; format: ADME, cell-based
[12] = Drug metabolism in dog hepatocytes assessed as oxidative metabolism level by metabolism-ID study; format: ADME, cell-based, Canis lupus familiaris, Hepatocyte
[13] = Oral bioavailability in rat; format: ADME, organism-based; conditions: in vivo
[14] = Intrinsic clearance in rat hepatocytes assessed per 10^6 cells
[15] = Percentage unbound in rat plasma at 37 degC by equilibrium dialysis method; format: ADME, cell-free
[16] = Lipophilicity, log D at pH 7.4 by shake flask method; conditions: buffer
in vivo = conditions: rat

| SMILES | IC50 [1] | IC50 [2] | Ratio [3] | Ratio [4] | Drug metabolism [5] | Drug metabolism [6] | Stability [7] | Stability [8] | Ratio (Hepatocyte [9]) | Ratio [10] | Ratio (Hepatocyte [11]) | Drug metabolism [12] | bioavailability [13] | hepatocyte CLint [14] | fraction unbound [15] | logD [16] | clearance (in vivo) |
| --- | --- | --- | --- | --- | --- | --- | --- | --- | --- | --- | --- | --- | --- | --- | --- | --- | --- |
| CCCSc1nc(N2CCC[C@@H](CC(=O)O)C2)ccc1C(=O)NC1CCCCC1 [AZD-4017] | 29 nM | 3770 nM | 2.4 | 7.5 | 28% | 10% | 4% | 15% | 6 | 4.1 | 2.1 | 13% |  |  |  |  |  |
| CCCSc1c(C(=O)N[C@H]2C3CC4CC2C[C@](O)(C4)C3)cnn1-c1ccc(C(=O)O)cc1 |  |  |  |  |  |  |  |  |  |  |  |  | 10% | < 2 µL/min/1e6 cells | 0.105 | -0.4 | 20 mL/min/kg |
| O=C(O)c1ccc(-n2ncc(C(=O)NC3C4CC5CC(C4)CC3C5)c2SC2CCCC2)cc1 (configuration not stated) |  |  |  |  |  |  |  |  |  |  |  |  | 57% | 14 µL/min/1e6 cells | 0.0015 | 2.6 | 3.3 mL/min/kg |
| CCCSc1c(C(=O)N[C@H]2C3CC4CC2C[C@](OC)(C4)C3)cnn1-c1ccc(C(=O)O)cc1 |  |  |  |  |  |  |  |  |  |  |  |  | 54% | < 2 µL/min/1e6 cells | 0.285 | < 0.5 | 13 mL/min/kg |
| CCSc1c(C(=O)NC2C3CC4CC(C3)CC2C4)cnn1-c1ccc(C(=O)O)cc1 (configuration not stated) |  |  |  |  |  |  |  |  |  |  |  |  | 65% | 6 µL/min/1e6 cells | 0.0131 | 1.5 | 3 mL/min/kg |
